Test results published in patent US20120015925A1, “NOVEL BENZOTHIAZEPINE AND BENZOTHIEPINE COMPOUNDS” (ASAHI KASEI PHARMA CORPORATION, priority 2004, published 2012).

What was measured:
[1] = tested on: rats with partial ligation of the bile duct dosed bile acid; assay: Model for hepatic disorder associated with cholestasis (partial bile duct ligation model), Protocol A: AST, ALT, ALP; type: in vivo, rat
Text: (§1) In the present Test Example, a model for the hepatic disorder caused by partial ligation of the bile duct was employed with reference to Kanno's method (Liver, 43, Suppl(1):A126, 2002).
(§2) That is, to the SD (IGS) strain male rats at 7 to 10 weeks of age, the partial ligation of the bile duct was given with opening the abdominal cavity under anesthesia with pentobarbital. Before the operation, the blood was collected from femoral vein, in order to obtain the value before the administration. From the day after the operation, 200 mg/kg of bile acid and the test compound were orally administered forcibly twice per day for 3.5 days (Protocol A). Without giving the partial ligation of the bile duct, 200 mg/kg of bile acid and the test compound were also orally administered forcibly twice per day for 3.5 days (Protocol B). In both cases, the test compound was dissolved or suspended in distilled water or an aqueous solution of 1% HCO 60 (Nippon Chemicals). To the control group, saline was administered. As comparative examples, 25 mg/kg of cholestyramine (supplied from Sigma) or 50 mg/kg of ursodeoxycholic acid (supplied from Mitsubishi Pharma) was administered. For considering the effect of the operation, sham operation (sham group) was performed in some cases. The blood was collected from the abdominal aorta 6 hours after the drug administration on the final day of the experiment. AST (GOT), ALT (GPT) and ALP in the blood were measured using measurement kits (GOT II-HA Test Wako, GPT II-HA Test Wako and Alkaline Phosphor HA Test Wako, all were supplied from Wako Pure Chemical Industries) and using an automatic analyzer (Nitech ANALAYZER SUPER Z818).

[2] = tested on: Wistar rats given choline-deficient food; assay: Steatohepatitis model: AST and ALT in blood; type: in vivo, rat; details: 3 mg/kg oral once a day for 2 weeks, n = 4, average ± standard error; for AST: control group (n = 6) 180 ± 46; for ALT: control group (n = 6) 245 ± 57
Text: In the present Test Example, a steatohepatitis model was employed with reference to the method of Okan A et al. (Dig. Dis. Sci., 47:2389-2397, 2002).
That is, choline-deficient food (supplied from Oriental Yeast Co., Ltd.) was given to Wistar rats at 7 weeks of age for two weeks to prepare a steatohepatitis model. The test compound was suspended in an aqueous solution of 0.5% methylcellulose (supplied from Wako Pure Chemical Industries), and the aqueous solution of 0.5% methylcellulose (supplied from Wako Pure Chemical Industries) was used as the control. They were orally administered once a day for consecutive 2 weeks. The blood was collected from the abdominal aorta on the day after the final drug administration. AST (GOT) and ALT (GPT) in the blood were measured using the measurement kits (GOT II-HA Test Wako and GPT II Test Wako, supplied from Wako Pure Chemical Industries) with an automatic analyzer (Nitech ANALAYZER SUPER Z818).

male beagle dogs = assay: Effect of combination with pravastatin on plasma total cholesterol levels in dogs; type: in vivo, dog; details: for plasma total cholesterol BEFORE TREATMENT: Example compound 3 mg/kg alone group, baseline; for plasma total cholesterol BEFORE TREATMENT / plasma total cholesterol AFTER TREATMENT: N=4, mean±standard error; for plasma total cholesterol AFTER TREATMENT / plasma total cholesterol BEFORE TREATMENT − AFTER TREATMENT / reduction rate with respect to the data before administration (number in parenthesis): Example compound 3 mg/kg alone, oral once daily for 7 days; for plasma total cholesterol BEFORE TREATMENT − AFTER TREATMENT / reduction rate with respect to the data before administration (number in parenthesis): vehicle 1
Text: The effect of the combination of the compounds described in Example with pravastatin (HMG-CoA reductase inhibitor) on plasma cholesterol levels in dogs was examined.
To male beagle dogs (supplied from Kitayama Labes, body weight 9 to 13 kg), usual solid feedstuff (DS-A: Oriental Yeast Co., Ltd.) was given once daily at 13:00 to 14:00. The light was turned on from 7:00 to 19:00 as a light period, and the remaining was defined as a dark period. Water was given ad libitum. In the morning in the week prior to the administration, the blood was collected with heparin from forearm cephalic vein, and plasma was collected by centrifugation. The total cholesterol level of this plasma was measured using the commercially available cholesterol level measurement kit by the enzymatic method (Cholesterol-E Test Wako). The dogs were grouped so that the total cholesterol levels were almost equal. Sodium pravastatin (1 mg/kg, Sankyo) alone or 3 mg/kg of the compound described in each of Examples alone or the combination thereof was orally administered once daily just before feeding for 7 days. Pravastatin was dissolved in distilled water, and the compound described in Example was suspended in 0.5% methylcellulose solution for administration. On the day after the final administration, the blood was collected from the forearm cephalic vein under starving, to which plasma was obtained. The total cholesterol level therein was measured by the same way. As a result, the total cholesterol level in the plasma was reduced by 7 mg/dL (6%) by orally administering 1 mg/kg/day of pravastatin for 7 days. The total cholesterol level in the plasma was reduced by […] (3 to 8%) by orally administering 3 mg/kg/day of the compound described in each of Examples for 7 days. When pravastatin and the compound described in each of Examples were co-administered at this dosages, the total cholesterol in the plasma was reduced by 14 to 24 mg/dL (12 to 20%). The reduction rate of the total cholesterol level was larger in the co-administration with the compound described in Example than in the administration of pravastatin alone, and the augmented effect by the co-administration was observed.

rats dosed bile acid = assay: Model for hepatic disorder associated with cholestasis, Protocol B (bile acid without partial ligation): AST, ALT, ALP; type: in vivo, rat; details: Table 13, Protocol B, 0.1 mg/kg oral twice per day for 3.5 days, N=8, mean±standard error
Text: as §1, §2

[3] = biological target: T1, human IBAT transporter in which alanine at position 171 has been substituted with serine (Homo sapiens, UniProt Q12908); assay: In vitro assay using Cos 7 cells, human IBAT with alanine 171 substituted with serine; type: cell-based; details: 10 nM test compound
T1 sequence (Q12908 1-348): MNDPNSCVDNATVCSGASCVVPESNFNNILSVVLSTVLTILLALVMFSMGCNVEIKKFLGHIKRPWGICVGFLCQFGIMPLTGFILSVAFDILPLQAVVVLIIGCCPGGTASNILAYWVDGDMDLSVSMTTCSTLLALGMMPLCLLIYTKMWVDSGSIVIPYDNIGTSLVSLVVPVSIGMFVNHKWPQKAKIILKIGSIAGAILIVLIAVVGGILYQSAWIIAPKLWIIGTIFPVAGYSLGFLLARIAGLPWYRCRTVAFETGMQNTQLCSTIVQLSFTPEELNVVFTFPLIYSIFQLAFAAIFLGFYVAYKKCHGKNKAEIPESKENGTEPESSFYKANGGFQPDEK

[4] = Table 12-1, Protocol A, 1 mg/kg in 1% HCO 60, N=3, mean±standard error, control group 417 ± 185, sham 43 ± 1
[5] = Table 12-1, Protocol A, 1 mg/kg in 1% HCO 60, N=3, mean±standard error, control group 589 ± 221, sham 141 ± 26
[6] = Table 12-1, Protocol A, 1 mg/kg in 1% HCO 60, N=3, mean±standard error, control group 2318 ± 583, sham 665 ± 94
[7] = Table 12-2, 1 mg/kg in 1% HCO 60, N=3, mean±standard error, control group 384 ± 156, sham 48 ± 5
[8] = Table 12-2, 1 mg/kg in 1% HCO 60, N=3, mean±standard error, control group 643 ± 125, sham 128 ± 18
[9] = Table 12-2, 1 mg/kg in 1% HCO 60, N=3, mean±standard error, control group 2204 ± 327, sham 630 ± 87

Row | SMILES | ALT [1, 4] | AST [1, 5] | ALP [1, 6] | AST [2] | ALT [2] | ALT [1, 7] | AST [1, 8] | ALP [1, 9] | plasma total cholesterol BEFORE TREATMENT (male beagle dogs) | plasma total cholesterol AFTER TREATMENT (male beagle dogs) | plasma total cholesterol BEFORE TREATMENT − AFTER TREATMENT (male beagle dogs) | reduction rate with respect to the data before administration (number in parenthesis) (male beagle dogs) | other results
1 | C#CC[N+](C)(Cc1ccccc1)Cc1ccc(NC(=S)Nc2cccc(C3NC(CCCC)(CCCC)CS(=O)(=O)c4ccc(N(C)C)cc43)c2)cc1.[Br-] (racemic) [EXAMPLE 3448] | 181 ± 79 IU/L | 352 ± 210 IU/L | 1148 ± 332 IU/L | 134 ± 23 IU/L | 143 ± 79 IU/L | – | – | – | – | – | – | – | –
2 | CCCCC1(CCCC)CS(=O)(=O)c2ccc(N(C)C)cc2C(c2cccc(NC(=S)Nc3ccc(C[N+]45CCC(c6ccccc6)(CC4)CC5)cc3)c2)N1.[Br-] (racemic) [EXAMPLE 3696] | – | – | – | 98 ± 23 IU/L | 145 ± 34 IU/L | 191 ± 21 IU/L | 325 ± 87 IU/L | 1209 ± 125 IU/L | 119 ± 2 mg/dL | 115 ± 3 mg/dL | 3 (3) mg/dL | 3 (3) | –
3 | CCCCC1(CCCC)CS(=O)(=O)c2ccc(N(C)C)cc2C(c2cccc(NC(=S)CCCCC[N+]34CCC(CC3)CC4)c2)N1.[Br-] (centres unmarked) [EXAMPLE 1, 1-{5-[3-(3,3-dibutyl-7-dimethylamino-1,1-dioxo-2,3,4,5-tetrahydro-1,4-benzothiazepine-5-yl)phenylthiocarbamoyl]pentyl}-1-azoniabicyclo[2.2.2]octane bromide] | – | – | – | – | – | – | – | – | – | – | – | – | ALT ([1]; Table 11, Protocol A, 0.1 mg/kg oral twice per day for 3.5 days, N=8, mean±standard error, control group 200 ± 81): 61 ± 4 IU/L; AST ([1]; Table 11, Protocol A, 0.1 mg/kg oral twice per day for 3.5 days, N=8, mean±standard error, control group 400 ± 160): 182 ± 42 IU/L; ALP ([1]; Table 11, Protocol A, 0.1 mg/kg oral twice per day for 3.5 days, N=8, mean±standard error, control group 1120 ± 410): 603 ± 78 IU/L; ALT (rats dosed bile acid; control group 82 ± 17): 53 ± 6 IU/L; AST (rats dosed bile acid; control group 157 ± 35): 100 ± 2 IU/L; ALP (rats dosed bile acid; control group 593 ± 77): 453 ± 50 IU/L; Cos 7 WITH HUMAN IBAT IN WHICH 171ST ALANINE IS SUBSTITUTED WITH SERINE INHIBITION (%) AT TEST COMPOUND CONCENTRATION OF 10 nM [3]: 53%
4 | CCCCC1(CCCC)CS(=O)(=O)c2ccc(N(C)C)cc2C(c2cccc(NC(=S)Nc3ccc(C[N+](C)(C)Cc4ccccc4)cc3)c2)N1.[Br-] (centres unmarked) [EXAMPLE 3440] | 155 ± 38 IU/L | 309 ± 37 IU/L | 1614 ± 189 IU/L | 125 ± 34 IU/L | 167 ± 93 IU/L | – | – | – | – | – | – | – | –
5 | CCCCC1(CCCC)CS(=O)(=O)c2ccc(N(C)C)cc2C(c2cccc(NC(=S)Nc3ccc(C[N+]4(Cc5ccccc5)CCC(O)CC4)cc3)c2)N1.[Br-] (centres unmarked) [EXAMPLE 3605] | 258 ± 219 IU/L | 487 ± 382 IU/L | 1489 ± 533 IU/L | 80 ± 34 IU/L | 121 ± 36 IU/L | – | – | – | – | – | – | – | –
6 | CCCCC1(CCCC)CS(=O)(=O)c2ccc(N(C)C)cc2C(c2cccc(NC(=S)Nc3ccc(C[n+]4ccc(C(C)(C)C)cc4)cc3)c2)N1.[Br-] (centres unmarked) [EXAMPLE 3713] | – | – | – | 77 ± 37 IU/L | 118 ± 36 IU/L | 163 ± 96 IU/L | 280 ± 61 IU/L | 1008 ± 289 IU/L | 117 ± 4 mg/dL | 113 ± 3 mg/dL | 4 mg/dL | 3 | –
7 | CCCCC1(CCCC)CS(=O)(=O)c2ccc(N(C)C)cc2C(c2cccc(NC(=S)Nc3ccc(C[n+]4cccc(CCCO)c4)cc3)c2)N1.[Br-] (centres unmarked) [EXAMPLE 3747] | – | – | – | 63 ± 86 IU/L | 102 ± 50 IU/L | 146 ± 70 IU/L | 245 ± 81 IU/L | 960 ± 259 IU/L | – | – | – | – | –
8 | CCCCC1(CCCC)CS(=O)(=O)c2ccc(N(C)C)cc2C(c2cccc(NC(=S)Nc3ccc(C[n+]4cccc(CCC(=O)OC)c4)cc3)c2)N1.[Br-] (centres unmarked) [EXAMPLE 3752] | – | – | – | 69 ± 98 IU/L | 88 ± 45 IU/L | 165 ± 47 IU/L | 358 ± 87 IU/L | 1112 ± 184 IU/L | – | – | – | – | –
9 | CCCCC1(CCCC)CS(=O)(=O)c2ccc(N(C)C)cc2C(c2cccc(NC(=S)Nc3ccc(C[n+]4ccccc4CCC)cc3)c2)N1.[Br-] (centres unmarked) [EXAMPLE 5408] | – | – | – | 103 ± 45 IU/L | 149 ± 38 IU/L | 197 ± 45 IU/L | 198 ± 65 IU/L | 1005 ± 102 IU/L | 128 ± 4 mg/dL | 122 ± 4 mg/dL | 6 mg/dL | 5 | –
